Experiment: xn = mol fraction of the nth substance listed
Details: Liquid, Vibrating tube method

CCCCCCC [heptane] + CCO
mass density [kg/m3]
Details | x2 = 0 | x2 = 0.125 | x2 = 0.25 | x2 = 0.375 | x2 = 0.5 | x2 = 0.625 | x2 = 0.75 | x2 = 0.875
293.15 K, 100 kPa | 683.9 | 688.1 | 694.5 | 701.9 | 711.2 | 722.6 | 737.9 | 758.9
293.15 K, 5000 kPa | 688.2 | 692.5 | 699 | 706.4 | 715.7 | 727.1 | 742.3 | 763.2
293.15 K, 10000 kPa | 692.5 | 696.8 | 703.3 | 710.9 | 719.9 | 731.4 | 746.6 | 767.4
293.15 K, 15000 kPa | 696.5 | 701 | 707.3 | 714.9 | 724 | 735.4 | 750.7 | 771.4
293.15 K, 20000 kPa | 700.5 | 704.9 | 711.3 | 718.9 | 728 | 739.4 | 754.6 | 775.3
293.15 K, 25000 kPa | 704.1 | 708.5 | 714.9 | 722.4 | 731.6 | 743 | 758.3 | 778.9
293.15 K, 30000 kPa | 707.5 | 712 | 718.4 | 725.9 | 735.1 | 746.5 | 761.7 | 782.3
293.15 K, 35000 kPa | 710.8 | 715.4 | 721.7 | 729.3 | 738.5 | 749.9 | 765.1 | 785.6
293.15 K, 40000 kPa | 714 | 718.4 | 725 | 732.5 | 741.7 | 753.1 | 768.4 | 788.9
293.15 K, 45000 kPa | 716.9 | 721.5 | 728 | 735.5 | 744.9 | 756.2 | 771.4 | 791.9
293.15 K, 50000 kPa | 719.8 | 724.5 | 731.1 | 738.5 | 747.9 | 759.3 | 774.5 | 794.9
293.15 K, 55000 kPa | 722.7 | 727.4 | 733.9 | 741.4 | 750.8 | 762.2 | 777.4 | 797.8
293.15 K, 60000 kPa | 725.4 | 730.2 | 736.7 | 744.2 | 753.6 | 765 | 780.2 | 800.6
293.15 K, 65000 kPa | 728 | 732.9 | 739.4 | 746.9 | 756.3 | 767.8 | 782.9 | 803.4
303.15 K, 100 kPa | 675.1 | 679.8 | 685.3 | 692.7 | 701.9 | 713.4 | 728.9 | 749.9
303.15 K, 5000 kPa | 680 | 684.8 | 690.2 | 697.6 | 706.9 | 718.3 | 733.7 | 754.6
303.15 K, 10000 kPa | 684.4 | 689.3 | 694.8 | 702.1 | 711.4 | 722.8 | 738.2 | 759
303.15 K, 15000 kPa | 688.9 | 693.8 | 699.3 | 706.8 | 715.9 | 727.4 | 742.7 | 763.3
303.15 K, 20000 kPa | 692.8 | 697.8 | 703.4 | 710.7 | 720 | 731.4 | 746.7 | 767.3
303.15 K, 25000 kPa | 696.8 | 701.7 | 707.3 | 714.7 | 723.9 | 735.4 | 750.6 | 771.1
303.15 K, 30000 kPa | 700.3 | 705.3 | 710.9 | 718.3 | 727.5 | 739 | 754.2 | 774.7
303.15 K, 35000 kPa | 703.7 | 708.9 | 714.4 | 721.8 | 731.1 | 742.6 | 757.7 | 778.2
303.15 K, 40000 kPa | 707.1 | 712.3 | 717.9 | 725.3 | 734.5 | 746 | 761.2 | 781.5
303.15 K, 45000 kPa | 710.2 | 715.4 | 721.1 | 728.5 | 737.7 | 749.2 | 764.4 | 784.8
303.15 K, 50000 kPa | 713.4 | 718.5 | 724.2 | 731.6 | 740.8 | 752.2 | 767.5 | 787.9
303.15 K, 55000 kPa | 716.4 | 721.4 | 727.3 | 734.7 | 743.9 | 755.3 | 770.6 | 791
303.15 K, 60000 kPa | 719.2 | 724.4 | 730.2 | 737.5 | 746.9 | 758.3 | 773.5 | 793.9
303.15 K, 65000 kPa | 722 | 727.2 | 733 | 740.4 | 749.7 | 761.1 | 776.4 | 796.7
313.15 K, 100 kPa | 666.4 | 670.7 | 676 | 683.3 | 692.6 | 704.2 | 719.8 | 740.8
313.15 K, 5000 kPa | 671.6 | 676.1 | 681.4 | 688.7 | 697.9 | 709.5 | 724.9 | 745.8
313.15 K, 10000 kPa | 676.5 | 681.1 | 686.4 | 693.6 | 702.9 | 714.3 | 729.8 | 750.5
313.15 K, 15000 kPa | 681 | 685.6 | 690.9 | 698.2 | 707.5 | 718.9 | 734.3 | 755
313.15 K, 20000 kPa | 685.3 | 689.9 | 695.3 | 702.6 | 711.9 | 723.3 | 738.5 | 759.1
313.15 K, 25000 kPa | 689.4 | 694 | 699.4 | 706.7 | 716 | 727.4 | 742.6 | 763.1
313.15 K, 30000 kPa | 693.3 | 697.9 | 703.4 | 710.5 | 719.9 | 731.3 | 746.5 | 766.9
313.15 K, 35000 kPa | 696.9 | 701.6 | 707 | 714.3 | 723.6 | 735 | 750.3 | 770.6
313.15 K, 40000 kPa | 700.4 | 705.2 | 710.6 | 717.9 | 727.2 | 738.6 | 753.8 | 774.1
313.15 K, 45000 kPa | 703.9 | 708.6 | 714.1 | 721.3 | 730.8 | 742.1 | 757.3 | 777.6
313.15 K, 50000 kPa | 707.1 | 711.9 | 717.4 | 724.7 | 734.1 | 745.4 | 760.6 | 780.9
313.15 K, 55000 kPa | 710.1 | 715.1 | 720.6 | 727.9 | 737.3 | 748.6 | 763.8 | 784.1
313.15 K, 60000 kPa | 713.1 | 718.1 | 723.6 | 730.9 | 740.2 | 751.6 | 766.9 | 787.1
313.15 K, 65000 kPa | 716 | 721 | 726.6 | 733.9 | 743.2 | 754.7 | 769.9 | 790.1
323.15 K, 100 kPa | 657.7 | 661.8 | 666.9 | 674.1 | 683.5 | 695 | 710.6 | 731.7
323.15 K, 5000 kPa | 663.4 | 667.4 | 672.6 | 679.7 | 689.2 | 700.5 | 716.1 | 737
323.15 K, 10000 kPa | 668.7 | 672.7 | 678 | 685.2 | 694.6 | 705.8 | 721.3 | 742.1
323.15 K, 15000 kPa | 673.4 | 677.6 | 682.9 | 690 | 699.4 | 710.7 | 726.1 | 746.7
323.15 K, 20000 kPa | 678 | 682.2 | 687.6 | 694.7 | 704 | 715.3 | 730.6 | 751.1
323.15 K, 25000 kPa | 682.5 | 686.8 | 692.1 | 699.2 | 708.5 | 719.8 | 735.1 | 755.5
323.15 K, 30000 kPa | 686.5 | 690.9 | 696.2 | 703.4 | 712.7 | 723.9 | 739.1 | 759.5
323.15 K, 35000 kPa | 690.4 | 694.7 | 700 | 707.3 | 716.6 | 727.8 | 743 | 763.4
323.15 K, 40000 kPa | 694.1 | 698.5 | 703.7 | 711 | 720.4 | 731.6 | 746.8 | 767
323.15 K, 45000 kPa | 697.7 | 702 | 707.4 | 714.6 | 724 | 735.2 | 750.3 | 770.6
323.15 K, 50000 kPa | 701.1 | 705.4 | 710.8 | 718 | 727.4 | 738.6 | 753.8 | 774
323.15 K, 55000 kPa | 704.3 | 708.6 | 714 | 721.3 | 730.6 | 741.9 | 757 | 777.2
323.15 K, 60000 kPa | 707.4 | 711.8 | 717.2 | 724.5 | 733.8 | 745.1 | 760.2 | 780.3
323.15 K, 65000 kPa | 710.3 | 714.7 | 720.2 | 727.5 | 736.8 | 748.1 | 763.2 | 783.4
333.15 K, 100 kPa | 649.1 | 652.3 | 657.3 | 664.5 | 673.7 | 685.1 | 700.9 | 722.2
333.15 K, 5000 kPa | 655.2 | 658.4 | 663.4 | 670.7 | 679.9 | 691.2 | 706.8 | 727.9
333.15 K, 10000 kPa | 661 | 664.2 | 669.4 | 676.6 | 685.7 | 697 | 712.4 | 733.4
333.15 K, 15000 kPa | 666.3 | 669.6 | 674.7 | 681.9 | 691.1 | 702.3 | 717.7 | 738.5
333.15 K, 20000 kPa | 670.9 | 674.4 | 679.6 | 686.7 | 696 | 707.1 | 722.5 | 743.2
333.15 K, 25000 kPa | 675.4 | 678.8 | 684.3 | 691.4 | 700.6 | 711.8 | 727 | 747.5
333.15 K, 30000 kPa | 679.7 | 683.1 | 688.7 | 695.7 | 704.9 | 716 | 731.3 | 751.7
333.15 K, 35000 kPa | 683.8 | 687.1 | 692.8 | 699.9 | 709.1 | 720.1 | 735.4 | 755.8
333.15 K, 40000 kPa | 687.6 | 690.9 | 696.6 | 703.8 | 713 | 724 | 739.2 | 759.6
333.15 K, 45000 kPa | 691.3 | 694.6 | 700.4 | 707.5 | 716.7 | 727.7 | 743 | 763.3
333.15 K, 50000 kPa | 694.8 | 698.2 | 704 | 711.2 | 720.3 | 731.4 | 746.6 | 766.8
333.15 K, 55000 kPa | 698.4 | 701.7 | 707.6 | 714.7 | 723.9 | 735 | 750.2 | 770.4
333.15 K, 60000 kPa | 701.5 | 705 | 710.8 | 718 | 727.2 | 738.2 | 753.4 | 773.6
333.15 K, 65000 kPa | 704.7 | 708.1 | 714 | 721.3 | 730.4 | 741.4 | 756.7 | 776.8

— the NIST ThermoML archive (doi:10.1021/je050261u)
